# Assay results: patent US7084140B2, “Arylglycinamide derivatives, method of producing said derivatives and pharmaceutical compositions containing these compounds” (Boehringer Ingelheim Pharma GmbH & Co. KG, priority 1996, dated 2006)
# Structures can show the parent of a compound that is named as a salt.
# Biological target: T1, NK1 (Cavia porcellus, UniProt P30547)
# T1 construct: from tissue; host or cells: whole animal (anaesthetised guinea pig)
# Test: Inhibition of lowering of blood pressure caused by NK1 in anaesthetised guinea pigs
# Assay type: in vivo
# Conditions: 1 mg/kg administered into the duodenum, NK1-agonist [βAla4, Sar9, Met(O2)11]SP(4-11) 0.2 μmol/kg i.v.
# Procedure: Inhibition of lowering of blood pressure caused by NK1 in anaesthetised guinea pigs.
# Guinea pigs weighing 300–500 grams were anaesthetised with pentobarbital (50 mg/kg i.p.), intubated and artificially ventilated. They were ventilated with 10 ml/kg of air at a frequency of 60 breaths per minute. The carotid artery was canulated and the arterial blood pressure was recorded. A polyethylene tube was inserted into the jugular vein for the intravenous supply of substances.
# A temporary reduction in blood pressure was brought about at intervals of 10 minutes by intravenous administration of the NK1-agonist [βAla^4, Sar^9, Met (O2)^11]Sp(4-11)
# [drawing 30] in a dose of 0.2 μmol/kg. After the blood pressure thus produced had been measured, the test compound was introduced into the duodenum and the NK1-agonist was again injected every 10 minutes.
# The results were expressed as a % inhibition of the reduction in blood pressure caused by the NK1-agonist specified.
# T1 sequence (P30547 whole entry): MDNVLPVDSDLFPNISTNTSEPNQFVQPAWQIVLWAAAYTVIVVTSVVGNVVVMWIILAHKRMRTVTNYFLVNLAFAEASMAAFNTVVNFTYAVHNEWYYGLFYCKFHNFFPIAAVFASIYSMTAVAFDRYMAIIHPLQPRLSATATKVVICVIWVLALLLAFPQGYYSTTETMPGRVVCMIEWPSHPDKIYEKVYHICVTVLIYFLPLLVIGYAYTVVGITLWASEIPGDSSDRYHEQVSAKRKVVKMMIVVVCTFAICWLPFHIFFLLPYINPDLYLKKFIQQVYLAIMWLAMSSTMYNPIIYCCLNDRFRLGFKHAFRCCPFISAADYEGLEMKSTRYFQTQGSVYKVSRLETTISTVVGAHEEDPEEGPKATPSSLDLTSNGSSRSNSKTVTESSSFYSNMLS
row,SMILES,% inhibition of the reduction in blood pressure caused by the NK1-agonist
1,"CC(C)N1CCN(C(C(=O)N(C)CCc2cc(C(F)(F)F)cc(C(F)(F)F)c2)c2ccccc2)CC1 (racemic) [Example 1, (R,S)-1-i-propyl-4-[2-phenylacetic acid-N-methyl-N-(3,5-bistrifluoromethylphenylethyl)]-amide dihydrochloride]",80%

# Biological target: T2, NK1-receptor (substance P-receptor) (Homo sapiens, UniProt P25103)
# T2 construct: expressed in transfected cells; host or cells: IM-9 human lymphoblastoma cells
# Test: Receptor affinity for the NK1-receptor, displacement of 125I-labelled substance P on IM-9 cells
# Assay type: binding
# Conditions: human lymphoblastoma cells (IM-9) with cloned NK1-receptors
# Procedure: The receptor affinity for the NK1-receptor (substance P-receptor) is determined on human lymphoblastoma cells (IM-9) with cloned NK1-receptors, by measuring the displacement of ^125I-labelled substance P. The K1-values thus obtained show the efficacy of the compounds: […]
# T2 sequence (P25103 whole entry): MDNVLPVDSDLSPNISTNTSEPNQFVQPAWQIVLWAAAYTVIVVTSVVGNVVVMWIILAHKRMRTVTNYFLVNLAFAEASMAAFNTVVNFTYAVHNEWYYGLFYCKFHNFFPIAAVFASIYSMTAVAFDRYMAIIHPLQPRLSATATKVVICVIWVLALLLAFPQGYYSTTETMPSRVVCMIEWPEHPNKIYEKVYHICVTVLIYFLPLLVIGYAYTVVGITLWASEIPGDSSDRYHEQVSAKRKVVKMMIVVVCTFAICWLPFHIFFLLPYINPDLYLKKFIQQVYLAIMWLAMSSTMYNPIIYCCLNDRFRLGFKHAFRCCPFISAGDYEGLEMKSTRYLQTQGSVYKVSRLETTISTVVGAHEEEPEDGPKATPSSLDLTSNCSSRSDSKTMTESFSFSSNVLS
row,SMILES,Ki
1,"CC(C)N1CCN(C(C(=O)N(C)CCc2cc(C(F)(F)F)cc(C(F)(F)F)c2)c2ccccc2)CC1 (racemic) [Example 1, (R,S)-1-i-propyl-4-[2-phenylacetic acid-N-methyl-N-(3,5-bistrifluoromethylphenylethyl)]-amide dihydrochloride]",1.2 nM
2,CN(CCc1cc(C(F)(F)F)cc(C(F)(F)F)c1)C(=O)C(c1ccccc1)N1CCNCC1 (stereo not drawn) [Example 2],1 nM
3,CN(CCc1cc(C(F)(F)F)cc(C(F)(F)F)c1)C(=O)C(c1ccccc1)N1CCN(c2ncccn2)CC1 (stereo not drawn) [Example 3],19 nM
4,CN1CCCN(C(C(=O)N(C)CCc2cc(C(F)(F)F)cc(C(F)(F)F)c2)c2ccccc2)CC1 (stereo not drawn) [Example 4],1.4 nM
5,CN(CCc1cc(C(F)(F)F)cc(C(F)(F)F)c1)C(=O)C(c1ccccc1)N1CCC(N(C)C)CC1 (stereo not drawn) [Example 5],1.5 nM
6,CN1CCN(C2CCN(C(C(=O)N(C)CCc3cc(C(F)(F)F)cc(C(F)(F)F)c3)c3ccccc3)CC2)CC1 (stereo not drawn) [Example 8],1.8 nM
7,CN1CCC(N2CCN(C(C(=O)N(C)CCc3cc(C(F)(F)F)cc(C(F)(F)F)c3)c3ccccc3)CC2)CC1 (stereo not drawn) [Example 9],2.5 nM
8,CN(CCc1cc(C(F)(F)F)cc(C(F)(F)F)c1)C(=O)C(c1ccccc1)N1CCN(CC(=O)N2CCCC2)CC1 (stereo not drawn) [Example 11],3.8 nM
9,CN(CCc1cc(C(F)(F)F)cc(C(F)(F)F)c1)C(=O)C(c1ccccc1)N1CCC(N2CCN(CC(N)=O)CC2)CC1 (stereo not drawn) [Example 12],5 nM
10,CN(CCc1cc(C(F)(F)F)cc(C(F)(F)F)c1)C(=O)C(c1ccccc1)N1CCC(N2CCC(N3CCCCC3)CC2)CC1 (stereo not drawn) [Example 13],2.4 nM
11,CCN(CC)C1CCN(C(C(=O)N(C)CCc2cc(C(F)(F)F)cc(C(F)(F)F)c2)c2ccccc2)CC1 (stereo not drawn) [Example 15],0.98 nM
12,CN(CCc1cc(C(F)(F)F)cc(C(F)(F)F)c1)C(=O)C(c1ccccc1)N1CCC(N(C)CCO)CC1 (stereo not drawn) [Example 16],0.9 nM
13,CN(CCc1cc(C(F)(F)F)cc(C(F)(F)F)c1)C(=O)C(c1ccccc1)N1CCC(N)CC1 (stereo not drawn) [Example 17],7.75 nM
14,CNC1CCN(C(C(=O)N(C)CCc2cc(C(F)(F)F)cc(C(F)(F)F)c2)c2ccccc2)CC1 (stereo not drawn) [Example 18],0.96 nM
15,CN(CCc1cc(C(F)(F)F)cc(C(F)(F)F)c1)C(=O)C(c1ccccc1)N1CCC(NC2CCCC2)CC1 (stereo not drawn) [Example 19],1.17 nM
16,CC(C)NC1CCN(C(C(=O)N(C)CCc2cc(C(F)(F)F)cc(C(F)(F)F)c2)c2ccccc2)CC1 (stereo not drawn) [Example 20],2 nM
17,CN(CCc1cc(C(F)(F)F)cc(C(F)(F)F)c1)C(=O)C(c1ccccc1)N1CCC(O)CC1 (stereo not drawn) [Example 22],2.2 nM
18,CN(CCc1cc(C(F)(F)F)cc(C(F)(F)F)c1)C(=O)C(c1ccccc1)N1CCC(NCC(=O)N2CCOCC2)CC1 (stereo not drawn) [Example 23],2.5 nM

# Further lines, results first:
row,Ki,SMILES
1,2.2 nM,C=CCN1CCN(C(C(=O)N(C)CCc2cc(C(F)(F)F)cc(C(F)(F)F)c2)c2ccccc2)CC1 (stereo not drawn) [Example 24]
2,6 nM,C#CCN1CCN(C(C(=O)N(C)CCc2cc(C(F)(F)F)cc(C(F)(F)F)c2)c2ccccc2)CC1 (stereo not drawn) [Example 25]
3,1.6 nM,CN(CCc1cc(C(F)(F)F)cc(C(F)(F)F)c1)C(=O)C(c1ccccc1)N1CCN(CCO)CC1 (stereo not drawn) [Example 26]
4,1.3 nM,CN(C)CCN1CCN(C(C(=O)N(C)CCc2cc(C(F)(F)F)cc(C(F)(F)F)c2)c2ccccc2)CC1 (stereo not drawn) [Example 28]
5,1.8 nM,COCCN1CCN(C(C(=O)N(C)CCc2cc(C(F)(F)F)cc(C(F)(F)F)c2)c2ccccc2)CC1 (stereo not drawn) [Example 30]
6,1.3 nM,CC(C)N1CCN(C(C(=O)N(C)CCc2cc(C(F)(F)F)cc(C(F)(F)F)c2)c2ccccc2)CC1=O (stereo not drawn) [Example 32]
7,7.4 nM,CC(C)N1CCN(C(C(=O)NC(C)(C)Cc2cc(C(F)(F)F)cc(C(F)(F)F)c2)c2ccccc2)CC1 (stereo not drawn) [Example 33]
8,2.9 nM,CC(C)(Cc1cc(C(F)(F)F)cc(C(F)(F)F)c1)NC(=O)C(c1ccccc1)N1CCNCC1 (stereo not drawn) [Example 34]
9,1.7 nM,COc1ccc(C(C(=O)N(C)CCc2cc(C(F)(F)F)cc(C(F)(F)F)c2)N2CCNCC2)cc1OC (stereo not drawn) [Example 47]
10,1.25 nM,CN(CCc1cc(C(F)(F)F)cc(C(F)(F)F)c1)C(=O)C(c1ccccc1)N1CCC(N(CCO)CCO)CC1 (stereo not drawn) [Example 55]
11,1.4 nM,CCCN1CCN(C(C(=O)N(C)CCc2cc(C(F)(F)F)cc(C(F)(F)F)c2)c2ccccc2)CC1 (stereo not drawn) [Example 63]
12,1.1 nM,CN1CCN(C(C(=O)N(C)CCc2cc(C(F)(F)F)cc(C(F)(F)F)c2)c2ccccc2)CC1 (stereo not drawn) [Example 64]
13,5.7 nM,COc1ccc(C(C(=O)N(C)CCc2cc(C(F)(F)F)cc(C(F)(F)F)c2)N2CCN(C(C)C)CC2)cc1OC (stereo not drawn) [Example 65]
14,2 nM,CC(C)N1CCN(C(C(=O)N(C)CCc2cc(C(F)(F)F)cc(C(F)(F)F)c2)c2cccc3c2OCO3)CC1 (stereo not drawn) [Example 73]
15,1.5 nM,CC(C)N1CCN(C(C(=O)N(C)CCc2cc(C(F)(F)F)cc(C(F)(F)F)c2)c2ccccc2)CC1 (stereo not drawn) [Example 74]
16,0.44 nM,CN(CCc1cc(C(F)(F)F)cc(C(F)(F)F)c1)C(=O)[C@H](c1ccccc1)N1CCNCC1 [Example 75]
17,2 nM,CN(CCc1cc(C(F)(F)F)cc(C(F)(F)F)c1)C(=O)C(c1ccccc1)N1CCC(N(C)CCCCO)CC1 (stereo not drawn) [Example 76]
